Measurements: publication PMC11672400, “Synthesis, Spectroscopic Characterization, Structural Analysis, and Evaluation of Anti-Tumor, Antimicrobial, and Antibiofilm Activities of Halogenoaminopyrazoles Derivatives” (Antibiotics, 2024)
Values after ≈ are worked out from the molar mass of the structure shown. Where two headings read alike, the source gives them in different places.

What was measured:
[1] = system: Escherichia coli ATCC25922; assay: Qualitative evaluation of antimicrobial activity (inhibition zone, spot on agar); type: cell-based; set-up: key: (+) inhibited bacterial growth; (-) did not inhibit bacterial growth; settings: 0.06 g/2 mL DMSO, 5 µL spot
Protocol: (§1) For testing the antimicrobial/antibiofilm activity, the concentration of the studied compounds was identical to 0.06 g/2 mL DMSO. 0.5 Standard McFarland suspension was used, which was inoculated onto Mueller Hinton agar plates, (Remel, Lenexa, KS, USA), 5 µL of each compound was spotted and incubated overnight at 37 °C. Antimicrobial activity was observed as zones of inhibition formed around the spot.

[2] = system: Enterococcus faecalis ATCC29212; assay: as above; type: cell-based; set-up: key: (+) inhibited bacterial growth; (-) did not inhibit bacterial growth; settings: 0.06 g/2 mL DMSO, 5 µL spot
Protocol: as §1

[3] = system: Staphylococcus aureus ATCC25923; assay: as above; type: cell-based; set-up: key: (+) inhibited bacterial growth; (-) did not inhibit bacterial growth; settings: 0.06 g/2 mL DMSO, 5 µL spot
Protocol: as §1

[4] = system: Pseudomonas aeruginosa ATCC27853; assay: as above; type: cell-based; set-up: key: (+) inhibited bacterial growth; (-) did not inhibit bacterial growth; settings: 0.06 g/2 mL DMSO, 5 µL spot
Protocol: as §1

[5] = system: Escherichia coli ATCC25922; assay: Antibiofilm assay (crystal violet), MBIC; type: cell-based; settings: 37 °C; for minimal effective concentration: Escherichia coli, ATCC25922, 24 h, read-out: Minimum biofilm inhibition concentration (MBIC), Escherichia coli ATCC25922
Protocol: (§2) Microorganisms were grown in 96-well plates filled with nutrient broth along with test substances, followed by incubation at 37 °C for 24 h. Plates were cleaned and rinsed thrice using SPW solution (sterile physiological water). After that, the attached cells were treated with 110 μL of methanol for 5 min, and then the methanol was removed by turning it upside down. […] Once stained, the solution was removed, and the plates were washed with running tap water. […] The antimicrobial/antibiofilm activity of the compounds was evaluated against two antibiotics, commercial formulations of metronidazole and nitrofurantoin.

[6] = system: Enterococcus faecalis ATCC29212; assay: Antibiofilm assay (crystal violet), MBIC; type: cell-based; settings: Enterococcus faecalis, ATCC29212, 24 h, 37 °C, read-out: Minimum biofilm inhibition concentration (MBIC), Enterococcus faecalis ATCC29212
Protocol: as §2

[7] = system: Staphylococcus aureus ATCC25923; assay: Antibiofilm assay (crystal violet), MBIC; type: cell-based; settings: 24 h, 37 °C; for minimal effective concentration: Staphylococcus aureus, ATCC25923, read-out: Minimum biofilm inhibition concentration (MBIC), Staphylococcus aureus ATCC25923
Protocol: as §2

[8] = system: Pseudomonas aeruginosa ATCC27853; assay: Antibiofilm assay (crystal violet), MBIC; type: cell-based; settings: 37 °C; for minimal effective concentration: Pseudomonas aeruginosa, ATCC27853, 24 h, read-out: Minimum biofilm inhibition concentration (MBIC), Pseudomonas aeruginosa ATCC27853
Protocol: as §2

[9] = system: Escherichia coli ATCC25922; assay: MIC by serial microdilution in liquid medium; type: cell-based; settings: 24 h, 37 °C; for MIC: Escherichia coli, ATCC25922, read-out: Minimum inhibitory concentration, Escherichia coli ATCC25922
Protocol: (§3) The minimum inhibitory concentrations (MIC) were determined by the serial microdilution method in a liquid medium (Tryptone Soy Broth), on 96-well plates. Serial binary dilutions of the compound stock solution (10 mg/mL in DMSO) were carried out in 90 µL of culture medium and 10 µL of 10^6 CFU/mL (Colony Forming Units) microbial suspension. Each test included a positive control (wells with culture medium and microbial suspension) and a negative control for medium sterility. After incubation at 37 °C for 24 h the plates were visually examined, and optical density was measured at 620 nm. […] The MIC value (µg/mL) for the chemical compound was determined by the concentration in the final well without bacterial growth. All experiments were performed in triplicate.

[10] = system: Enterococcus faecalis ATCC29212; assay: MIC by serial microdilution in liquid medium; type: cell-based; settings: Enterococcus faecalis, ATCC29212; 24 h, 37 °C; read-out: Minimum inhibitory concentration, Enterococcus faecalis ATCC29212
Protocol: as §3

[11] = system: Staphylococcus aureus ATCC25923; assay: MIC by serial microdilution in liquid medium; type: cell-based; settings: 24 h, 37 °C; for MIC: Staphylococcus aureus, ATCC25923, read-out: Minimum inhibitory concentration, Staphylococcus aureus ATCC25923
Protocol: as §3

[12] = system: Pseudomonas aeruginosa ATCC27853; assay: MIC by serial microdilution in liquid medium; type: cell-based; settings: Pseudomonas aeruginosa, ATCC27853; 24 h, 37 °C; read-out: Minimum inhibitory concentration, Pseudomonas aeruginosa ATCC27853
Protocol: as §3

[13] = system: HEp-2 epithelial tumor cells; assay: MTT cell viability / anti-tumor activity; settings: Homo sapiens, read-out: Cell viability on Hep2 cells (%)
Protocol: The cytotoxicity of the halogenoaminopyrazole derivatives 4a–f and 5a–e was tested on L929 mouse fibroblast cells, and their anti-tumor activity was evaluated on the human carcinoma epithelial cell line HEp-2. The experiments were performed in a concentration range of 3.1–50 μg/mL.
The MTT test was used, 3-(4,5-dimethylthiazol-2-yl)-2,5-diphenyl tetrazolium bromide), which is reduced to insoluble purple-blue formazan crystals precipitated by living cells. Cell viability assessed using the MTT assay reflects the activity of mitochondrial enzymes in treated cells compared to the control culture of untreated cells.
To assess the biocompatibility of the substances, a stable mouse fibroblast cell line, NCTC (clone 929), was grown in minimal essential medium (MEM) with 10% fetal bovine serum (FBS) and 2 mM L-glutamine, along with 100 U/mL penicillin, 100 µg/mL streptomycin, and 500 µg/mL neomycin. The concentration of the compounds used was 0.06 g/2 mL DMSO.
In cytotoxicity experiments, compound solutions were utilized at concentrations of 3.1 μg/mL, 6.25 μg/mL, 12.5 μg/mL, 25 μg/mL, and 50 μg/mL. The NCTC cell suspension was placed into 96-well culture plates with a concentration of 4 × 10^4 cells/mL and incubated at 37 °C for 24 h in a 5% CO2 humidified atmosphere. The compounds under study were placed in sets of three at varying concentrations ranging from 3.1 μg/mL to 50 μg/mL in every well, and the plates were then kept under standard conditions for 48 h. Cell viability was determined through the utilization of the MTT assay. Next, the MTT solution was removed, then isopropanol was added to solubilize the formazan crystals. The colored solution was then measured for absorbance at 570 nm using a Berthold Technologies, LB 940 microplate reader (Bad Wildbad, Germany). The outcomes were determined based on Formula (1) while considering that the recorded optical density is directly related to the number of viable cells in the cell culture being examined [35, 36]. % cell viability = (OD sample/OD control) × 100%(1)
For each tested compound, a graph representing percentage cell viability versus concentrations (in the range 3.1–50 µg/mL) was obtained. Then, the IC50 value was calculated by using ED50 plus V1.0 software.

[14] = MTT cell viability / cytotoxicity on normal fibroblasts; type: cell-based, mouse; settings: mouse, NCTC clone 929 (L929) mouse fibroblast cells
Text: Merck chemicals were utilized.
Untreated cells were used as control, considered 100% viable cells.

MIC [9] [µg/mL]	MIC [10] [µg/mL]	MIC [11] [µg/mL]	MIC [12] [µg/mL]	SMILES	Qualitative antimicrobial activity, Escherichia coli ATCC25922 [1]	Qualitative antimicrobial activity, Enterococcus faecalis ATCC29212 [2]	Qualitative antimicrobial activity, Staphylococcus aureus ATCC25923 [3]	Qualitative antimicrobial activity, Pseudomonas aeruginosa ATCC27853 [4]	minimal effective concentration [5] [µg/mL]	minimal effective concentration [6] [µg/mL]	minimal effective concentration [7] [µg/mL]	minimal effective concentration [8] [µg/mL]	viability at 3.1 µg/mL ([13]; HEp-2, 24 h) [%]	viability at 6.25 µg/mL ([13]; HEp-2, 24 h) [%]	viability at 12.5 µg/mL ([13]; HEp-2, 24 h) [%]	viability at 25 µg/mL ([13]; HEp-2, 24 h) [%]	viability at 50 µg/mL ([13]; HEp-2, 24 h) [%]	viability at 3.1 µg/mL ([13]; HEp-2, 48 h) [%]	viability at 6.25 µg/mL ([13]; HEp-2, 48 h) [%]	viability at 12.5 µg/mL ([13]; HEp-2, 48 h) [%]	also measured
930 ± 1.05 (≈ 2860 µM)	930 ± 0.03 (≈ 2860 µM)	930 ± 0.04 (≈ 2860 µM)	930 ± 1.08 (≈ 2860 µM)	Cc1nn(CNc2ccc(Br)cc2)c(C)c1[N+](=O)[O-] [4c, N-[(3,5-dimetyl-4-nitro-1H-pyrazol-1-yl)-methyl]-4-bromoaniline]	-	-	-	-	930 ± 0.11	930 ± 1.09	930 ± 0.06	930 ± 0.52	101 ± 2.04	103 ± 2.31	100 ± 3.15	98.7 ± 1.83	92.64 ± 0.9	116 ± 2.55	104.2 ± 0.88	99.6 ± 2.32	viability at 25 µg/mL ([13]; HEp-2, 48 h): 82.6 ± 3.28%; viability at 50 µg/mL ([13]; HEp-2, 48 h): 70.2 ± 1.91%; viability at 24 h, 3.1 µg/mL [14]: 99.2 ± 0.97%; viability at 48 h, 3.1 µg/mL [14]: 99.67 ± 0.71%; viability at 24 h, 6.25 µg/mL [14]: 97.1 ± 3.04%; viability at 48 h, 6.25 µg/mL [14]: 98.8 ± 1.92%; viability at 24 h, 12.5 µg/mL [14]: 95.6 ± 0.62%; viability at 48 h, 12.5 µg/mL [14]: 97.2 ± 3.5%; viability at 24 h, 25 µg/mL [14]: 95.5 ± 2.14%; viability at 48 h, 25 µg/mL [14]: 95.6 ± 2.93%; viability at 24 h, 50 µg/mL [14]: 91.1 ± 3.04%; viability at 48 h, 50 µg/mL [14]: 81.5 ± 3.26%; melting point: 118 to 120 °C
460 (≈ 1640 µM)	930 ± 0.02 (≈ 3310 µM)	460 (≈ 1640 µM)	930 ± 0.53 (≈ 3310 µM)	Cc1nn(CNc2cccc(Cl)c2)c(C)c1[N+](=O)[O-] [4e, N-[(3,5-dimetyl-4-nitro-1H-pyrazol-1-yl)-methyl]-3-chloroaniline]	+	-	+	+			460		106.5 ± 0.73	103.7 ± 0.28	99.7 ± 0.32	89.15 ± 0.88	56.46 ± 0.42	98.1 ± 2.88	97.1 ± 1.78	94.8 ± 2.84	Minimum biofilm inhibition concentration (MBIC), Staphylococcus aureus ATCC25923 [7]: 460 ± 0.04 µg/mL; Minimum inhibitory concentration, Escherichia coli ATCC25922 [9]: 460 ± 0.52 µg/mL (≈ 1640 µM); Minimum inhibitory concentration, Staphylococcus aureus ATCC25923 [11]: 460 ± 0.03 µg/mL (≈ 1640 µM); viability at 25 µg/mL ([13]; HEp-2, 48 h): 81.7 ± 2.38%; viability at 50 µg/mL ([13]; HEp-2, 48 h): 54.9 ± 2.76%; viability at 24 h, 3.1 µg/mL [14]: 93.1 ± 2.76%; viability at 48 h, 3.1 µg/mL [14]: 89.5 ± 2.24%; viability at 24 h, 6.25 µg/mL [14]: 94.3 ± 2.92%; viability at 48 h, 6.25 µg/mL [14]: 98.3 ± 2.03%; viability at 24 h, 12.5 µg/mL [14]: 97.8 ± 0.99%; viability at 48 h, 12.5 µg/mL [14]: 93.2 ± 2.94%; viability at 24 h, 25 µg/mL [14]: 95.6 ± 2.19%; viability at 48 h, 25 µg/mL [14]: 92.2 ± 0.89%; viability at 24 h, 50 µg/mL [14]: 63.5 ± 3.18%; viability at 48 h, 50 µg/mL [14]: 63.2 ± 2.56%; melting point: 110 to 111 °C
460 (≈ 1640 µM)	930 ± 0.04 (≈ 3310 µM)	460 (≈ 1640 µM)	460 ± 0.03 (≈ 1640 µM)	Cc1nn(CNc2ccccc2Cl)c(C)c1[N+](=O)[O-] [4f, N-[(3,5-dimetyl-4-nitro-1H-pyrazol-1-yl)-methyl]-2-chloroaniline]	+	-	+	+	460		460	460	98.3 ± 1.16	98.61 ± 0.72	95.5 ± 2.45	94.3 ± 2.78	93.9 ± 1.03	98.3 ± 3.38	97.74 ± 0.62	93.63 ± 0.75	Minimum biofilm inhibition concentration (MBIC), Escherichia coli ATCC25922 ([5]; 24 h): 460 ± 0.02 µg/mL; Minimum biofilm inhibition concentration (MBIC), Staphylococcus aureus ATCC25923 [7]: 460 ± 0.02 µg/mL; Minimum biofilm inhibition concentration (MBIC), Pseudomonas aeruginosa ATCC27853 ([8]; 24 h): 460 ± 0.01 µg/mL; Minimum inhibitory concentration, Escherichia coli ATCC25922 [9]: 460 ± 0.02 µg/mL (≈ 1640 µM); Minimum inhibitory concentration, Staphylococcus aureus ATCC25923 [11]: 460 ± 0.01 µg/mL (≈ 1640 µM); viability at 25 µg/mL ([13]; HEp-2, 48 h): 86 ± 0.93%; viability at 50 µg/mL ([13]; HEp-2, 48 h): 72.8 ± 2.33%; viability at 24 h, 3.1 µg/mL [14]: 107 ± 1.61%; viability at 48 h, 3.1 µg/mL [14]: 99.6 ± 1.2%; viability at 24 h, 6.25 µg/mL [14]: 108 ± 1.6%; viability at 48 h, 6.25 µg/mL [14]: 106 ± 1.7%; viability at 24 h, 12.5 µg/mL [14]: 103 ± 1.05%; viability at 48 h, 12.5 µg/mL [14]: 103.1 ± 0.68%; viability at 24 h, 25 µg/mL [14]: 93.7 ± 2.77%; viability at 48 h, 25 µg/mL [14]: 97.8 ± 2.35%; viability at 24 h, 50 µg/mL [14]: 87.7 ± 1.77%; viability at 48 h, 50 µg/mL [14]: 80.5 ± 1.16%; melting point: 134 to 135 °C
1950 ± 0.05 (≈ 11400 µM)	970 ± 0.17 (≈ 5670 µM)	1950 ± 0.05 (≈ 11400 µM)	1562 ± 0.03 (≈ 9130 µM)	Cc1ncc([N+](=O)[O-])n1CCO [Metronidazole, metronidazole, reference compound]	+	+	+	+	1950 ± 0.04	970 ± 0.21	1950 ± 0.09	1562 ± 0.11									
600 ± 0.02 (≈ 2520 µM)	600 ± 0.12 (≈ 2520 µM)	600 ± 0.04 (≈ 2520 µM)	3571 ± 0.08 (≈ 15000 µM)	O=C1CN(/N=C/c2ccc([N+](=O)[O-])o2)C(=O)N1 [Nitrofurantoin, nitrofurantoin, reference compound]	+	+	+	+	600 ± 0.03	600 ± 0.17	2230 ± 0.13	550 ± 0.23									
